Data on 38 compounds can be found in patent publication US20070027150A1 (priority 2005, published 2007).

The target in the first experiment is His-tagged N-terminal ATP binding domain (amino acid residues 9-236) of HSP90α (Homo sapiens, UniProt P07900). The experiment can be described thus: HSP90 inhibitor binding potency: TRF competition binding assay. Conditions: Table I; read-out: Hsp90 IC50 Range. The method, boiled down: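 Competition against biotinylated radicicol for binding to the His-tagged 9-236 ATP domain of HSP90α: 2 h, room temperature, HEPES/MgCl2/KCl/BSA buffer. Streptavidin capture, then europium-labeled anti-His antibody and enhancement solution; europium counts give IC50.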
With `Cc1nc(N)nc2c1C(=O)CC(c1ccccc1-c1ccccc1CO)C2` (centres unmarked) [Compound 67, 2-amino-7-[2′-(hydroxymethyl)-1,1′-biphenyl-2-yl]-4-methyl-7,8-dihydroquinazolin-5(6H)-one], the IC50 is less than 1000 nM. The same measure, in the same setting: the figure for `Cc1nc(N)nc2c1C(=O)CC(c1c(O)cccc1Cl)C2` (centres unmarked) [Compound 168, 2-Amino-7-(2-chloro-6-hydroxy-phenyl)-4-methyl-7,8-dihydro-6H-quinazolin-5-one] is more than 10000 nM; for `Cc1nc(N)nc2c1C(=O)CC(c1c(OCCN3CCOCC3)cccc1-c1cccnc1F)C2` (centres unmarked) [Compound 157, 2-amino-7-[2-(2-fluoro-pyridin-3-yl)-6-(2-morpholin-4-yl-ethoxy)-phenyl]-4-methyl-7,8-dihydro-6H-quinazolin-5-one] it is less than 1000 nM. Turning to `Cc1nc(N)nc2c1C(=O)CC(c1nn(C)cc1Br)C2` (centres unmarked) [Compound 11, 2-amino-7-(4-bromo-1-methyl-1H-pyrazol-3-yl)-4-methyl-7,8-dihydro-6H-quinazolin-5-one], the IC50 is more than 10000 nM. As to `Cc1nc(N)nc2c1C(=O)CC(c1ccccc1Oc1cncnc1)C2` (centres unmarked) [Compound 142, 2-amino-4-methyl-7-[2-(pyrimidin-5-yloxy)phenyl]-7,8-dihydroquinazolin-5(6H)-one], the IC50 was less than 1000 nM. Regarding `COc1cccc(-c2ccccc2C2CC(=O)c3c(C)nc(N)nc3C2)n1` (centres unmarked) [Compound 124, 2-amino-7-[2-(6-methoxypyridin-2-yl)phenyl]-4-methyl-7,8-dihydroquinazolin-5(6H)-one], the IC50 is less than 1000 nM. Still for that read-out and setting: the same measure for `Cc1nc(N)nc2c1C(=O)CC(c1ccccc1-c1ccccc1)C2` (centres unmarked) [Compound 41, 2-amino-7-(1,1′-biphenyl-2-yl)-4-methyl-7,8-dihydroquinazolin-5(6H)-one]: less than 1000 nM. Consider `Cc1cccc(-c2ccccc2C2CC(=O)c3c(C)nc(N)nc3C2)n1` (centres unmarked) [Compound 119, 2-amino-4-methyl-7-[2-(6-methylpyridin-2-yl)phenyl]-7,8-dihydroquinazolin-5(6H)-one], for which the IC50 is more than 10000 nM.

Regarding `COc1cccc(-c2cc(F)ccc2C2CC(=O)c3c(C)nc(N)nc3C2)n1` (centres unmarked) [Compound 130, 2-amino-7-[4-fluoro-2-(6-methoxy-pyridin-2-yl)-phenyl]-4-methyl-7,8-dihydro-6H-quinazolin-5-one], the IC50 is less than 1000 nM.

For `Cc1nc(N)nc2c1C(=O)CC(c1ccccc1N1CCCCC1)C2` (centres unmarked) [Compound 12, 2-amino-4-methyl-7-(2-piperidin-1-yl-phenyl)-7,8-dihydro-6H-quinazolin-5-one], the IC50 is less than 1000 nM. With `COc1ccc(-c2cccnc2F)c(C2CC(=O)c3c(C)nc(N)nc3C2)c1` (centres unmarked) [Compound 98, 2-amino-7-[2-(2-fluoropyridin-3-yl)-5-methoxyphenyl]-4-methyl-7,8-dihydroquinazolin-5(6H)-one], the IC50 was less than 1000 nM.

As for `Cc1nc(N)nc2c1C(=O)CC(c1ccccc1N1CCCC1=O)C2` (centres unmarked) [Compound 163, 2-amino-4-methyl-7-[2-(2-oxo-pyrrolidin-1-yl)-phenyl]-7,8-dihydro-6H-quinazolin-5-one], the IC50 was 1000 to 10000 nM. In the case of `Cc1ccc(F)c(-c2ccccc2C2CC(=O)c3c(C)nc(N)nc3C2)c1` (centres unmarked) [Compound 76, 2-amino-7-(2′-fluoro-5′-methyl-1,1′-biphenyl-2-yl)-4-methyl-7,8-dihydroquinazolin-5(6H)-one], the 50% inhibitory concentration (IC50) was less than 1000 nM. For `Cc1nc(N)nc2c1C(=O)CC(c1cccc(-c3ccccn3)c1)C2` (centres unmarked) [Compound 28, 2-amino-4-methyl-7-(3-pyridin-2-ylphenyl)-7,8-dihydroquinazolin-5(6H)-one], the IC50 is more than 10000 nM. For the compound `Cc1nc(N)nc2c1C(=O)CC(c1cccc(-c3ccncc3)c1)C2` (centres unmarked) [Compound 30, 2-amino-4-methyl-7-(3-pyridin-4-ylphenyl)-7,8-dihydroquinazolin-5(6H)-one], the IC50 was more than 10000 nM. Same read-out and setting: the figure for `Cc1nc(N)nc2c1C(=O)CC(c1ccccc1C1=CCCCC1)C2` (centres unmarked) [Compound 44, 2-amino-7-(2-cyclohex-1-en-1-ylphenyl)-4-methyl-7,8-dihydroquinazolin-5(6H)-one] is less than 1000 nM; for `Cc1nc(N)nc2c1C(=O)CC(c1ccccc1-c1cccnn1)C2` (centres unmarked) [Compound 115, 2-amino-4-methyl-7-(2-pyridazin-3-ylphenyl)-7,8-dihydroquinazolin-5(6H)-one] it is 1000 to 10000 nM. The same measure, in the same setting: the figure for `Cc1nc(N)nc2c1C(=O)CC(c1c(OCCN3CCNCC3)cccc1-c1cccnc1F)C2` (centres unmarked) [Compound 156, 2-amino-7-[2-(2-fluoro-pyridin-3-yl)-6-(2-piperazin-1-yl-ethoxy)-phenyl]-4-methyl-7,8-dihydro-6H-quinazolin-5-one] is less than 1000 nM; for `COc1ccc(-c2ccccc2C2CC(=O)c3c(C)nc(N)nc3C2)c(OC)c1` (centres unmarked) [Compound 107, 2-amino-7-(2′,4′-dimethoxy-1,1′-biphenyl-2-yl)-4-methyl-7,8-dihydroquinazolin-5(6H)-one] it is 1000 to 10000 nM. For the compound `Cc1nc(N)nc2c1C(=O)CC(c1ccccc1-c1cc(F)cnc1Cl)C2` (centres unmarked) [Compound 101, 2-amino-7-[2-(2-chloro-5-fluoropyridin-3-yl)phenyl]-4-methyl-7,8-dihydroquinazolin-5(6H)-one], the IC50 was less than 1000 nM. With `Cc1nc(N)nc2c1C(=O)CC(c1cccnc1-c1nccs1)C2` (centres unmarked) [Compound 36, 2-amino-4-methyl-7-[2-(1,3-thiazol-2-yl)pyridin-3-yl]-7,8-dihydroquinazolin-5(6H)-one], the IC50 was in the range of 1000 to 10000 nM.

On to `Cc1nc(N)nc2c1C(=O)CC(c1ccccc1-c1ccccn1)C2` (centres unmarked) [Compound 25, 2-amino-4-methyl-7-(2-pyridin-2-ylphenyl)-7,8-dihydroquinazolin-5(6H)-one], for which the concentration for half-maximal inhibition (IC50) is less than 1000 nM.

On to `Cc1cccnc1-c1ccccc1C1CC(=O)c2c(C)nc(N)nc2C1` (centres unmarked) [Compound 120, 2-amino-4-methyl-7-[2-(3-methylpyridin-2-yl)phenyl]-7,8-dihydroquinazolin-5(6H)-one], for which the IC50 lay within 1000 to 10000 nM.

The same experiment, now with this note: Table II; read-out: Hsp90 IC50 Range.
As for `Cc1ccc(F)c(-c2scnc2C2CC(=O)c3c(C)nc(N)nc3C2)c1` (centres unmarked) [Compound 293, 2-amino-7-[5-(2-fluoro-5-methyl-phenyl)-thiazol-4-yl]-4-methyl-7,8-dihydro-6H-quinazolin-5-one], the IC50 was less than 1000 nM.

`COc1cccc(-c2ccccc2C2CC(=O)c3cnc(N)nc3C2)n1` (centres unmarked) [Compound 246, 2-amino-7-[2-(6-methoxy-pyridin-2-yl)-phenyl]-7,8-dihydro-6H-quinazolin-5-one]: the half-maximal inhibitory concentration (IC50) is less than 1000 nM. For the compound `COc1cc(-n2ccnc2C2CC(=O)c3c(C)nc(N)nc3C2)c(OC)cc1Cl` (centres unmarked) [Compound 327, 2-amino-7-[1-(4-chloro-2,5-dimethoxy-phenyl)-1H-imidazol-2-yl]-4-methyl-7,8-dihydro-6H-quinazolin-5-one], the IC50 is less than 1000 nM.

For the compound `CCOc1ncncc1-c1cc(F)ccc1C1CC(=O)c2c(C)nc(N)nc2C1` (centres unmarked) [Compound 282, 2-amino-7-[2-(4-ethoxy-pyrimidin-5-yl)-4-fluoro-phenyl]-4-methyl-7,8-dihydro-6H-quinazolin-5-one], the IC50 is less than 1000 nM.

On to `CNc1cncc(-c2cc(F)ccc2C2CC(=O)c3c(C)nc(N)nc3C2)n1` (centres unmarked) [Compound 296, 2-amino-7-[4-fluoro-2-(6-methylamino-pyrazin-2-yl)-phenyl]-4-methyl-7,8-dihydro-6H-quinazolin-5-one], for which the IC50 was less than 1000 nM. `COc1cncc(-c2scnc2C2CC(=O)c3c(C)nc(N)nc3C2)n1` (centres unmarked) [Compound 303, 2-amino-7-[5-(6-methoxy-pyrazin-2-yl)-thiazol-4-yl]-4-methyl-7,8-dihydro-6H-quinazolin-5-one]: the IC50 is less than 1000 nM. As for `Cc1nc(N)nc2c1C(=O)CC(c1ccc(Cl)cc1-c1cccnc1F)C2` (centres unmarked) [Compound 249, 2-amino-7-[4-chloro-2-(2-fluoro-pyridin-3-yl)-phenyl]-4-methyl-7,8-dihydro-6H-quinazolin-5-one], the IC50 is less than 1000 nM. The same measure, in the same setting: the same measure for `Cc1nc(N)nc2c1C(=O)CC(c1ccc(F)cc1-c1cccc(Cl)n1)C2` (centres unmarked) [Compound 223, 2-amino-7-[2-(6-chloro-pyridin-2-yl)-4-fluoro-phenyl]-4-methyl-7,8-dihydro-6H-quinazolin-5-one]: less than 1000 nM; for `CCc1cccc(-c2cc(F)ccc2C2CC(=O)c3c(C)nc(N)nc3C2)n1` (centres unmarked) [Compound 183, 2-amino-7-[2-(6-ethyl-pyridin-2-yl)-4-fluoro-phenyl]-4-methyl-7,8-dihydro-6H-quinazolin-5-one]: less than 1000 nM; for `Cc1nc(N)nc2c1C(=O)CC(c1ccc(F)cc1OCc1ccccc1)C2` (centres unmarked) [Compound 265, 2-amino-7-(2-benzyloxy-4-fluoro-phenyl)-4-methyl-7,8-dihydro-6H-quinazolin-5-one]: 1000 to 10000 nM. For `COc1cccc(-c2ccccc2C2CC(=O)c3c(C)nc(N)nc3C2)c1F` (centres unmarked) [Compound 235, 2-amino-7-(2′-fluoro-3′-methoxy-biphenyl-2-yl)-4-methyl-7,8-dihydro-6H-quinazolin-5-one], the IC50 fell in the range of 1000 to 10000 nM.

For the compound `CCc1nc(N)nc2c1C(=O)CC(c1ccccc1)C2` (centres unmarked) [Compound 210, 2-amino-4-ethyl-7-phenyl-7,8-dihydro-6H-quinazolin-5-one], the IC50 is more than 10000 nM. The same measure, in the same setting: the figure for `Nc1cccc(Cc2nc(N)nc3c2C(=O)CC(c2ccccc2)C3)c1` (centres unmarked) [Compound 309, 2-amino-4-(3-amino-benzyl)-7-phenyl-7,8-dihydro-6H-quinazolin-5-one] is more than 10000 nM. On to `CCc1nc(N)nc2c1C(=O)CC(c1ccc(F)cc1-c1cccnc1OC)C2` (centres unmarked) [Compound 317, 2-amino-4-ethyl-7-[4-fluoro-2-(2-methoxy-pyridin-3-yl)-phenyl]-7,8-dihydro-6H-quinazolin-5-one], for which the IC50 lay within 1000 to 10000 nM. Still for that read-out and setting: the same measure for `Nc1ncc2c(n1)CC(c1ccccc1-c1cccc(F)n1)CC2=O` (centres unmarked) [Compound 245, 2-amino-7-[2-(6-fluoro-pyridin-2-yl)-phenyl]-7,8-dihydro-6H-quinazolin-5-one]: less than 1000 nM.

As a reminder, the IC50 is the concentration needed to halve the response being measured.
